According to patent publication US7402595B2, “JNK inhibitor” (Takeda Pharmaceutical Company Limited, priority 2002, dated 2008):

Experiments:
[1] = target: T1, human JNK1 (Homo sapiens, UniProt P45983); assay: Measurement of JNK inhibitory activity (32P uptake into cJUN by active JNK1); type: biochemical; conditions: 2.5 μM ATP, 30° C., 60 min
T1 construct: His6 (Met-Ala-His6, read from primer JNK1-U) (N); made in house; host or cells: Sf-21 insect cells (baculovirus BAC-HJNK1 co-infected with BAC-caMKK7); cJUN substrate from E. coli JM109
T1 sequence (P45983 1-384 isoform P45983-2): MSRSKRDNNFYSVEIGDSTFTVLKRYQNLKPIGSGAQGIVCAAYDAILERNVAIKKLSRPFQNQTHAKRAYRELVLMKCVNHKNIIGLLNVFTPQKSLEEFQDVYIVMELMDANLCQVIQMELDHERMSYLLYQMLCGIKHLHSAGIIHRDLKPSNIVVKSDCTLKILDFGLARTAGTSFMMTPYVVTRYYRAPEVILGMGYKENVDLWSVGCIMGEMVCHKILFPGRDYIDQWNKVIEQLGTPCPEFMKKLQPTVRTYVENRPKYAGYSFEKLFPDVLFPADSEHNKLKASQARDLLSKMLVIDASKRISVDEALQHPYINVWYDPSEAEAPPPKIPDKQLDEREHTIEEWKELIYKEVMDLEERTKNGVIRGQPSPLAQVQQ
Description: (4) Preparation of Active JNK1
Sf-21 cells were seeded to achieve 1×10^6 cells/ml in 100 ml of Sf-900 II SFM medium (GIBCO BRL) containing 10% fetal calf serum and cultured at 27° C. for 24 hrs. The recombinant baculovirus virus stock BAC-HJNK1 and BAC-caMKK7 were added by 0.2 ml each, and the cells were further cultured for 60 hrs. The cells were separated from the culture solution by centrifugation (3000 rpm, 10 min.) and washed twice with PBS. The cells were suspended in 10 ml of Lysis buffer (25 mM HEPES (pH 7.5), 1% Triton X, 130 mM NaCl, 1 mM EDTA, 1 mM DTT, 25 mM β-glycerophosphate, 20 μM leupeptin, 1 mM APMSF, 1 mM sodium orthovanadate) and ruptured by 4 times of treatment with a homogenizer (POLYTRON) at 20000 rpm, 30 seconds each. Active JNK1 was purified from a supernatant obtained by centrifugal separation (40000 rpm, 45 min.) by the use of Anti-FLAG M2 Affinity Gel (Sigma).
(5) Preparation of Recombinant cJUN
Escherichia coli JM109 (Toyobo Co., Ltd.) was transformed with a plasmid pGEJUN to give ampicillin resistant pGEJUN/JM109. The pGEJUN/JM109 strain was cultured overnight in 150 ml of LB medium (10 g/l tripton, 5 g/l yeast extract, 10 g/l sodium chloride) containing 50 μg/ml ampicillin at 200 rpm, 37° C. The culture solution (15 ml) was added to a fresh LB medium (150 ml) and cultured at 37° C. for 2 hrs. at 200 rpm. 1 mM IPTG (Wako Pure Chemical Industries, Ltd.) was added and the cells were further cultured for 6 hrs. The culture solution was centrifuged at 8000 rpm for 10 min. and bacterial cells were recovered, washed with PBS and frozen at −80° C. The cells were suspended in 20 ml of lysis buffer (B-PER bacterial protein extraction reagent (Pierce), Protease inhibitor Complete (Boehringer)) and shaken at room temperature for 10 min. After centrifugal separation (14000 rpm, 15 min., 4° C.), and GST-cJUN fused protein was purified from the supernatant using Redipack GST Purification Module (Amersham-Pharmacia Biotech).
(6) Measurement of JNK Inhibitory Activity
A reaction solution (37.5 μl, 25 mM HEPES (pH 7.5), 10 mM magnesium acetate, 1 mM DTT) containing 50 ng of active JNK1 and 1 μg of cJUN […]. The test compound (2.5 μl) was added and the mixture was incubated at 30° C. for 5 min. […] After reacting at 30° C. for 60 min., 50 μl of 20% TCA solution was added to stop the reaction. The reaction solution was left standing at 0° C. for 20 min. and an acid-insoluble fraction was transferred onto a GF/C filter (Packard Japan) using Cell Harvester (Packard Japan), and washed with 250 mM phosphoric acid. After drying at 45° C. for 60 min., 40 μl of Microscint 0 (Packard Japan) was added and the radioactivity was measured on TopCount (Packard Japan).

[2] = target: p38α (Homo sapiens, UniProt Q16539); assay: Inhibitory action on p38α; type: biochemical
Chain of p38α (Q16539 whole entry): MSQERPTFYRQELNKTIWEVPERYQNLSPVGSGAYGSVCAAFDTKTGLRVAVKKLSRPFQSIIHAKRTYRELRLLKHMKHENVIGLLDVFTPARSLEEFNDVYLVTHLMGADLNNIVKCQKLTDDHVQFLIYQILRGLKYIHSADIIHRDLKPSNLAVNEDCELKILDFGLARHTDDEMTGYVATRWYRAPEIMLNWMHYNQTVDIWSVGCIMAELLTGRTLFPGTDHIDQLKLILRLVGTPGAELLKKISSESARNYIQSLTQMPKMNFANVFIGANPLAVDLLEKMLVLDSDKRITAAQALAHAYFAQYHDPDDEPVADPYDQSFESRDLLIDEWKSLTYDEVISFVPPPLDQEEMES

[3] = target: ERK1 (Homo sapiens, UniProt P27361); assay: Inhibitory action on ERK1; type: biochemical
Chain of ERK1 (P27361 whole entry): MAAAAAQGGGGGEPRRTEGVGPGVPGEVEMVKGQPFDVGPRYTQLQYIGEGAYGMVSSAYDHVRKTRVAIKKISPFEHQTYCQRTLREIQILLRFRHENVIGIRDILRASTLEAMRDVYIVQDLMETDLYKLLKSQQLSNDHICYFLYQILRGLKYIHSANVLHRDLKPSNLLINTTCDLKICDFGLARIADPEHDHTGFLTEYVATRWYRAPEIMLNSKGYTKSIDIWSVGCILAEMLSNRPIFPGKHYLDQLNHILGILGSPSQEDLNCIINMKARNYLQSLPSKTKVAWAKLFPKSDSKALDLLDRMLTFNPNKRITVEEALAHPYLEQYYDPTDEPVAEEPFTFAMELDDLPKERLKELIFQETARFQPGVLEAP

[4] = system: Male wistar rats; assay: Pressure overloaded cardiac hypertrophy induced by an abdominal aortic stenosis (rat); type: in vivo; conditions: 10 mg/kg p.o. once a day, day 7 after aortic stenosis
Description: Preparation of the Model of Pressure Overloaded Cardiac Hypertrophy Induced by an Abdominal Aortic Stenosis (Rat)
Male wistar rats (body weight 260-300 g, CLEA Japan, Inc) were used. Under xylazine (10 mg/kg, i.p.) and ketamine (50 mg/kg, i.p.) anesthesia, abdominal aorta was exposed by median laparotomy. The left and right renal arteries were detached from the back, a 22G injection needle was put along the artery and it was ligated together with the aorta using a 2-0 silk thread just below the right renal artery. Then, the injection needle was removed to make a stenosis in the abdominal aorta. The abdomen was closed and the rats were housed commonly. For a sham group, the abdomen was closed without ligation (no stenosis) with a silk thread. A compound was suspended in a 0.5% methyl cellulose solution (2 ml/kg) and orally administered at a dose of 10 mg/kg 1 hr. before aortic stenosis and once a day from day 1 (the next day of stricture) to day 7 after operation. Vehicle (0.5% methyl cellulose solution) was administered instead of the compound to the sham group and control group. At day 7 after the preparation of aortic stenosis, the body weight was measured, and the heart was removed and then extracted under pentobarbital (50 mg/kg, i.p.) anesthesia. The right and left artium and right ventricle were excised from the heart and the wet weight of the left ventricle was measured. The left ventricle weight to body weight ratio of each rat was calculated and an increase from the average value of the sham group was calculated. Inhibitory rate of each group to a cardiac hypertrophy was calculated based on the control group as 100%.

SMILES | IC50 [1] [µM] | inhibition at 10 µM [2] [%] | inhibition at 10 µM [3] [%] | Inhibitory rate (cardiac hypertrophy, control group as 100%) [4] | Left ventricular weight/body weight ratio (mg/g) amount of increase from sham group [4] | Left ventricular weight/body weight ratio (mg/g) value [4] [mg/g]
CCCC(=O)c1c(-c2ccccc2)c2cc(Cl)ccc2c(=O)n1Cc1ccc(S(N)(=O)=O)cc1 [Example 455, 4-(6-chloro-3-butyryl-1-oxo-4-phenyl-1H-isoquinolin-2-ylmethyl)benzenesulfonamide] | 0.034 | 0 | 0 |  |  | 
COC(=O)c1c(-c2ccccc2)c2cc(Br)ccc2c(=O)n1CC1CCN(C(C)=O)CC1 [Example 112, 2-(1-acetylpiperidin-4-ylmethyl)-6-bromo-1-oxo-4-phenyl-1,2-dihydroisoquinoline-3-carboxylic acid methyl ester] | 3 | 0 | 0.095 |  |  | 
COC(=O)c1c(-c2ccccc2)c2cc(Br)ccc2c(=O)n1Cc1ccc(C(=O)NCCN2CCCC2)cc1 [Example 141, 6-bromo-1-oxo-4-phenyl-2-[4-(2-(pyrrolidin-1-yl)ethylcarbamoyl)benzyl]-1,2-dihydroisoquinoline-3-carboxylic acid methyl ester] | 0.037 | 10 | 4 |  |  | 
COC(=O)c1c(-c2ccccc2)c2cc(Br)ccc2c(=O)n1Cc1ccc(C(=O)O)cc1 [Example 102, 6-bromo-2-(4-carboxybenzyl)-1-oxo-4-phenyl-1,2-dihydroisoquinoline-3-carboxylic acid methyl ester] | 0.02 | 0 | 0 |  |  | 
COC(=O)c1c(-c2ccccc2)c2cc(Br)ccc2c(=O)n1Cc1ccc2c(c1)OCO2 [Example 24, 2-(benzo[1,3]dioxol-5-ylmethyl)-6-bromo-1-oxo-4-phenyl-1,2-dihydroisoquinoline-3-carboxylic acid methyl ester] | 0.018 | 18 | 39 |  |  | 
C/C(N)=C/C(=O)c1c(-c2ccccc2)c2cc(Br)ccc2c(=O)n1Cc1ccc(S(C)(=O)=O)cc1 [Example 546, 3-[(2Z)-3-aminobut-2-enoyl]-6-bromo-2-(4-methanesulfonylbenzyl)-4-phenyl-2H-isoquinolin-1-one] | 0.032 | 0 | 5 |  |  | 
CC(=O)c1c(-c2ccccc2)c2cc(Br)ccc2c(=O)n1Cc1ccc(S(N)(=O)=O)cc1 [Example 415, 3-acetyl-6-bromo-4-phenyl-2-(4-sulfamoylbenzyl)-2H-isoquinolin-1-one] | 0.039 | 0 | 0 |  |  | 
CCC(=O)c1c(-c2ccccc2)c2cc(Br)ccc2c(=O)n1Cc1ccc(S(C)(=O)=O)cc1 [Example 315, 6-bromo-2-(4-methanesulfonylbenzyl)-4-phenyl-3-propionyl-2H-isoquinolin-1-one] | 0.046 | 0 | 1 | rate 44%) | 0.29 ± 0.05 (Inhibitory mg/g | 2.19 ± 0.05
CCC(=O)c1c(-c2ccccc2)c2cc(Cl)ccc2c(=O)n1Cc1ccc(C(=O)O)cc1 [Example 463, 4-(6-chloro-1-oxo-4-phenyl-3-propionyl-1H-isoquinolin-2-ylmethyl)benzoic acid] | 0.016 | 0 | 22 |  |  | 
CCC(=O)c1c(-c2ccccc2)c2cc(Br)ccc2c(=O)n1Cc1ccc(C(=O)O)cc1 [Example 462, 4-(6-bromo-1-oxo-4-phenyl-3-propionyl-1H-isoquinolin-2-ylmethyl)benzoic acid] | 0.0091 | 0 | 13 |  |  | 
COC(=O)c1c(-c2ccccc2)c2cc(N)ccc2c(=O)n1Cc1ccc2c(c1)OCO2 [Example 156, 6-amino-2-(benzo[1,3]dioxol-5-ylmethyl)-1-oxo-4-phenyl-1,2-dihydroisoquinoline-3-carboxylic acid methyl ester] | 0.028 | 10 | 16 |  |  | 
COC(=O)c1c(-c2ccccc2)c2cc(Br)ccc2c(=O)n1Cc1ccc(S(C)(=O)=O)cc1 [Example 94, 6-bromo-2-(4-methanesulfonylbenzyl)-1-oxo-4-phenyl-1,2-dihydroisoquinoline-3-carboxylic acid methyl ester] |  | 2 | 0 | rate 40%) |  | 
COC(=O)c1c(-c2ccccc2)c2cc(Br)ccc2c(=O)n1Cc1ccc(NC(=O)CCC(=O)O)cc1 [Example 122, 6-bromo-2-[4-(3-carboxypropionylamino)benzyl]-1-oxo-4-phenyl-1,2-dihydroisoquinoline-3-carboxylic acid methyl ester] | 0.0092 | 0 | 0 |  |  | 
COC(=O)c1c(-c2ccccc2)c2cc(Br)ccc2c(=O)n1Cc1ccc(S(N)(=O)=O)cc1 [Example 93, 6-bromo-1-oxo-4-phenyl-2-(4-sulfamoylbenzyl)-1,2-dihydroisoquinoline-3-carboxylic acid methyl ester] | 0.014 | 20 | 0 |  |  | 
CCN(CC)NC(=O)c1ccc(Cn2c(C(=O)OC)c(-c3ccccc3)c3cc(Br)ccc3c2=O)cc1 [Example 356, 6-bromo-2-[4-(N′,N′-diethylhydrazinocarbonyl)benzyl]-1-oxo-4-phenyl-1,2-dihydroisoquinoline-3-carboxylic acid methyl ester] | 0.0075 | 0 | 0 |  |  | 
CCC(=O)c1c(-c2ccccc2)c2cc(Br)ccc2c(=O)n1Cc1ccc(-c2nnn[nH]2)cc1 [Example 495, 6-bromo-4-phenyl-3-propionyl-2-[4-(1H-tetrazol-5-yl)benzyl]-2H-isoquinolin-1-one] | 0.0067 | 0 | 37 |  |  | 
